What was measured:
[1] = tested on: Bacillus (Bacillus licheniformis, Bacillus thuringiensis/cereus) present in sporulated form; test: Milk powder samples not contaminated with Staphylococcus aureus incubated in culture medium with or without D-alanine; fluorescence reading and MPN count of nonspecific growth; type: cell-based
Protocol: The example described hereinafter illustrates the inhibiting effect of D-alanine on the […] of microorganisms of Bacillus type (such as Bacillus licheniformis, Bacillus thuringiensis/cereus).
To do this, 59 samples of milk powder products liable to contain Bacillus microorganisms, also not contaminated with Staphylococcus aureus, were tested.
In order to study the inhibiting effect of D-alanine, two culture media were tested:
Medium 1: culture medium without D-alanine,
Medium 2: culture medium in the presence of D-alanine at a final concentration in the medium of between 0.05 and 0.1 mol/l (final concentration in the medium).
The composition of said culture medium is the following (in g/l, final concentration in the medium with or without D-alanine):
The samples were prepared according to ISO standard 8261: 2001 (concerning milk and milk products and relating to the “general guidelines for the preparation of test samples, of the stock suspension and of the decimal dilutions for the purpose of microbiological examination”) according to the following steps: • a) 10 grams of the sample are weighed out and placed in a Stomacher® bag, • b) 90 ml of tryptone salt diluent preheated to 45° C. are added so as to obtain an initial 1/10 dilution of the sample, • c) grinding is carried out using a Stomacher® machine for one minute, • d) the Stomacher® bag is placed in a water bath and stirred for 5 minutes at 45° C., • e) 1 ml of the sample (diluted to 1/10) is taken and placed in 3 ml of culture medium so as to obtain a 1/40 dilution, • f) incubation is carried out for a period of between 24 and 27 hours at a temperature of 37° C., • g) the culture medium is read by fluorescence and the level of contamination of the sample with microorganisms is determined by means of the most probable number technique.
The reading consists of a measurement of the fluorescence of the culture medium obtained after incubation. A large variation in the fluorescence values attests to acidification of the medium, said acidification itself resulting from the growth of one or more microorganisms.
The CV fluorescence values were calculated on the basis of the samples tested (not contaminated with Staphylococcus aureus).
The higher the CV, the greater the acidification of the medium, thereby attesting to growth of the microorganisms present in the culture medium. Conversely, the lower the CV, the less the acidification, thereby reflecting less growth of the microorganisms. The specificity of the medium is therefore better and the risk of false positives is therefore less (false-positive result linked to the acidification of the medium by a bacterium of a microorganism other than Staphylococcus aureus). […]

[2] = tested on: Bacillus licheniformis spores; settings: L-alanine dehydrogenase dependent first step; cited from earlier work

| SMILES | % of samples with MPN count <10 (good specificity) ([1]; 59 milk powder samples, D-alanine 0.05-0.1 mol/l, 24-27 hours at 37° C.) [%] | rate of false-positive results ([1]; 59 milk powder samples, false positives related to growth of Bacillus) [%] | highest false-positive count result ([1]; 59 milk powder samples, with the use of D-alanine) [CFU/gram] | effect on CV values obtained after incubation of the medium ([1]; D-alanine in the culture medium vs. medium without) | inhibition of the first step of spore germination [2] |
| --- | --- | --- | --- | --- | --- |
| C[C@@H](N)C(=O)O [D-alanine] | 89.83 | 10.17 | ≤ 50 | greatly reduce the CV values | inhibited |
| CCOC(=O)C(C)=O [ethyl pyruvate] |  |  |  |  | inhibited |
| CCCCCCCCO [octanol] |  |  |  |  | inhibited |

Source: patent US10612068B2, “Culture medium containing a spore germination inhibiting or delaying compound” (BIOMERIEUX, priority 2008, dated 2020)
